Data from patent publication EP3501511A1, “MEANS FOR PREVENTING AND TREATING BRAIN METASTASIS” (Fundación Centro Nacional De Investigaciones Oncológicas …, priority 2017, dated 2019).

Legend:
B16/F10-BrM [1] = experiment: Tamoxifen-induced Stat3 depletion in reactive astrocytes of cKO-Stat3 mice inoculated with B16/F10-BrM; assay type: in vivo
Text: (§1) To test the functional contribution of pStat3+ RA in brain metastasis we generated GFAP-Cre/ERT2;Stat3loxP/loxP (cKO-Stat3) mice in which syngeneic brain metastatic (BrM) cells, labeled with Luciferase and Gfp (Green fluorescent protein), were intracardiacally inoculated. We used two BrM models including lung adenocarcinoma model (482N1) and melanoma model (B16/F10-BrM). […] In order to analyze the effect of Stat3 deletion in RA once brain metastases have developed, and given the limited time available in vivo before mice reach the humane endpoint, we cultured ex vivo cKO-Stat3 brain slices containing 2 weeks old lesions grown in mice (Fig. 4A).
All animal experiments were performed in accordance with a protocol approved by the CNIO, Instituto de Salud Carlos III and Comunidad de Madrid Institutional Animal Care and Use Committee. Athymic nu/nu (Harlan), and C57BL/6 mice 4-6 weeks of age were used. cKO-Stat3 was generated by breeding GFAP-CRE/ERT2 (B6.Cg- Tg(GFAP-cre/ERT2)505Fmv/J, Jackson Labs, ref. 012849) with Stat3loxP/loxP16.
Brain metastatic derivative of a syngeneic B16/F10 model (B16/F10-BrM) was established according to a previous protocol (Bos, P. D. et al. Nature 459, 1005-1009 (2009); Nguyen, D. X. et al. Cell 138, 51-62 (2009)). Brain colonization assays were performed injecting 100 µl of PBS into the left ventricle containing 100,000 cancer cells. Brain colonization was analyzed in vivo and ex vivo by bioluminescence imaging. Anesthetized mice (Isofluorane) were injected retro-orbitally with D-Luciferin (150 mg/kg) and imaged with an IVIS Spectrum Xenogen machine (Caliper Life Sciences). Bioluminescence analysis was performed using Living Image software, version 3. […] Silibinin in the formula of Legasil® was administered by oral gavage daily the same day cancer cells were inoculated (200mg/kg) and until mice reached the endpoint of the experiment.

Mouse astrocytes = experiment: Astrosphere assay; assay type: cell-based
Description: Mouse astrocytes were treated with conditioned media from BrM cell lines or with recombinant mouse protein including Egf (0.01 µg/ml, R&D Systems, ref. 2028-EG- 200), Mif (0.1 µg/ml, R&D Systems, ref. 1978-MF-0257CF) and Tgfα (0.1 µg/ml, R&D Systems, ref. 239-A-100) during 96 hours. After this treatment 10^4 astrocytes were seeded in low attachment plates and incubated for seven days in the presence of the same media to evaluate the ability to form astrospheres. Conditioned media from BrM cell lines were obtained after 3 days incubation of cancer cells in DMEM supplemented with 0.25 % FBS, 2 mM L-Glutamine, 100 IU/ml penicillin/streptomycin and […] amphotericin B. After being collected, the media was filtered and added to astrocytes. Conditioned media from astrospheres was collected, filtered and added to activated CD8 cells (Fig. 7P) or wild type brain slices (Fig. 7T).

482N1 = experiment: cKO-Stat3 brain slice cultures with established metastases treated with 4OH-Tamoxifen (BLI); assay type: cell-based, mouse; conditions: 4OH-Tamoxifen 1 µM; n≥ 4 brain slices per condition, P=0.013
Text: as §1, with “(B16/F10-BrM). These syngeneic models have gained brain tropism while retaining an aggressive extracranial metastatic potential (Valiente, M. et al. Cell 156, 1002-1016 (2014) and also as disclosed herein). […] We confirmed Stat3 depletion from RA under these experimental conditions (Fig.2).” for “(B16/F10-BrM).”, “4A). […]” for “4A).”
(§2) Treatments to brain slices were given once during the experiment (4OH-Tmx, 1 µM, Sigma-Aldrich, ref. H7904; WP1066, 10 µM, Merck, ref. 573097; Doxycycline, 1 µg/ml, Sigma-Aldrich, ref. D9891; silibinin, 100 µM, Sigma-Aldrich, ref. S0417) by adding them to the media. […] Analysis of the knockdown level in H2030-BrM (Fig. 4F) was analyzed in a homogenate containing the mouse brain tissue and human cancer cells. […]

B16/F10-BrM [2] = experiment: as above; assay type: cell-based, mouse; conditions: 4OH-Tamoxifen 1 µM; n≥ 8 brain slices per condition, P=0.012
Text: as §1, with “(B16/F10-BrM). These syngeneic models have gained brain tropism while retaining an aggressive extracranial metastatic potential (Valiente, M. et al. Cell 156, 1002-1016 (2014) and also as disclosed herein). […] We confirmed Stat3 depletion from RA under these experimental conditions (Fig.2).” for “(B16/F10-BrM).”, “4A). […]” for “4A).”
as §2

[3] = Tamoxifen treated cKO-Stat3 mice, n=7 metastases

CC/C(=C(\c1ccccc1)c1ccc(OCCN(C)C)cc1)c1ccccc1 [Tamoxifen]
metastases of Score 0 (no pStat3 signal) in the surrounding microenvironment (B16/F10-BrM [1]; Tamoxifen treated cKO-Stat3 mice): 66.7%
metastases of Score 1 (low pStat3 signal) in the surrounding microenvironment (B16/F10-BrM [1]; [3]): 22.2%
metastases of Score 2 (high pStat3 signal) in the surrounding microenvironment (B16/F10-BrM [1]; [3]): 11.1%
CD74+/Iba1+ cells infiltrating metastasis (B16/F10-BrM [1]; cKO-Stat3 brains treated with tamoxifen): less CD74+/lba1+ cells infiltrating metastasis

C[C@H](NC(=O)/C(C#N)=C/c1cccc(Br)n1)c1ccccc1 [WP1066]
formation of astrospheres (Mouse astrocytes; primary astrocytes in the presence of the cytokine cocktail (Egf, Tgfα, Mif)): impairs the formation of astrospheres

CC/C(=C(\c1ccc(O)cc1)c1ccc(OCCN(C)C)cc1)c1ccccc1 [4OH-Tamoxifen]
formation of astrospheres (Mouse astrocytes; cKO-Stat3 derived astrocytes induced by the cytokine cocktail, 4OH-Tamoxifen 1µM): unable to generate astrospheres
growth of established metastases scored with BLI (482N1): impaired the growth of established metastases
growth of established metastases scored with BLI (B16/F10-BrM [2]): impaired the growth of established metastases
